Test results as given in PubChem BioAssay (NCI).
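Briefly, cells in 96-well plates were exposed to five compound concentrations for 48 h, and endpoints were estimated by linear interpolation. Here, GI50 denotes the concentration required for 50% inhibition of growth. Definition used: TGI = concentration required for complete inhibition of growth.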

Legend:
Experiment in all cases: inhibition of tumour cell growth, NCI panel, 48 h
[1] = test system: 786-0 renal
[2] = test system: A498 renal
[3] = test system: A549 NSCLC
[4] = test system: ACHN renal
[5] = test system: BT-549 breast
[6] = test system: CAKI-1 renal
[7] = test system: CCRF-CEM leukemia
[8] = test system: COLO 205 colon
[9] = test system: DU-145 prostate
[10] = test system: EKVX NSCLC
[11] = test system: HCC-2998 colon
[12] = test system: HCT-116 colon
[13] = test system: HCT-15 colon
[14] = test system: HL-60(TB) leukemia
[15] = test system: HOP-62 NSCLC
[16] = test system: HOP-92 NSCLC
[17] = test system: HS 578T breast
[18] = test system: HT29 colon
[19] = test system: IGROV1 ovarian
[20] = test system: K-562 leukemia
[21] = test system: KM12 colon
[22] = test system: LOX IMVI melanoma
[23] = test system: M14 melanoma
[24] = test system: MALME-3M melanoma
[25] = test system: MCF7 breast
[26] = test system: MDA-MB-231 breast
[27] = test system: MDA-MB-468 breast
[28] = test system: MOLT-4 leukemia
[29] = test system: NCI-H226 lung
[30] = test system: NCI-H23 lung
[31] = test system: NCI-H460 lung
[32] = test system: NCI-H522 lung
[33] = test system: OVCAR-3 ovarian
[34] = test system: OVCAR-4 ovarian
[35] = test system: OVCAR-5 ovarian
[36] = test system: OVCAR-8 ovarian
[37] = test system: PC-3 prostate
[38] = test system: RPMI-8226 leukemia
[39] = test system: RXF 393 renal
[40] = test system: SF-268 CNS
[41] = test system: SF-295 CNS
[42] = test system: SF-539 CNS
[43] = test system: SK-MEL-2 melanoma
[44] = test system: SK-MEL-28 melanoma
[45] = test system: SK-MEL-5 melanoma
[46] = test system: SK-OV-3 ovarian
[47] = test system: SN12C renal
[48] = test system: SNB-19 CNS
[49] = test system: SNB-75 CNS
[50] = test system: SR leukemia
[51] = test system: SW-620 colon
[52] = test system: T-47D breast
[53] = test system: TK-10 renal
[54] = test system: U251 CNS
[55] = test system: UACC-257 melanoma
[56] = test system: UACC-62 melanoma
[57] = test system: UO-31 renal

SMILES: Oc1ccc(/C=C2\CCCc3cc4ccc(O)cc4[o+]c32)c(O)c1
- GI50 [1]: 8.21 µM
- TGI [1]: > 100 µM
- GI50 [2]: > 100 µM
- TGI [2]: > 100 µM
- GI50 [3]: 44.2 µM
- TGI [3]: > 100 µM
- GI50 [4]: 6.1 µM
- TGI [4]: > 100 µM
- GI50 [5]: 5.75 µM
- TGI [5]: > 100 µM
- GI50 [6]: 5.25 µM
- TGI [6]: > 100 µM
- GI50 [7]: 3.56 µM
- TGI [7]: > 100 µM
- GI50 [8]: 15.2 µM
- TGI [8]: 44.5 µM
- GI50 [9]: 22.2 µM
- TGI [9]: > 100 µM
- GI50 [10]: 8.82 µM
- TGI [10]: > 100 µM
- GI50 [11]: 6.29 µM
- TGI [11]: 20.4 µM
- GI50 [12]: 3.82 µM
- TGI [12]: > 100 µM
- GI50 [13]: 3.27 µM
- TGI [13]: 11.2 µM
- GI50 [14]: 2.65 µM
- TGI [14]: 57.3 µM
- GI50 [15]: 44.2 µM
- TGI [15]: > 100 µM
- GI50 [16]: 6.43 µM
- TGI [16]: > 100 µM
- GI50 [17]: 2.68 µM
- TGI [17]: > 100 µM
- GI50 [18]: 17.9 µM
- TGI [18]: 46.6 µM
- GI50 [19]: 18.9 µM
- TGI [19]: 78.1 µM
- GI50 [20]: 4.03 µM
- TGI [20]: > 100 µM
- GI50 [21]: 3.3 µM
- TGI [21]: 13.7 µM
- GI50 [22]: 2.95 µM
- TGI [22]: 12.5 µM
- GI50 [23]: 6.7 µM
- TGI [23]: > 100 µM
- GI50 [24]: 4.77 µM
- TGI [24]: 40.3 µM
- GI50 [25]: 2.68 µM
- TGI [25]: 70.8 µM
- GI50 [26]: 3.99 µM
- TGI [26]: 33.1 µM
- GI50 [27]: 1.99 µM
- TGI [27]: 6.46 µM
- GI50 [28]: 3.06 µM
- TGI [28]: > 100 µM
- GI50 [29]: 26.6 µM
- TGI [29]: > 100 µM
- GI50 [30]: 11.7 µM
- TGI [30]: > 100 µM
- GI50 [31]: 5.14 µM
- TGI [31]: 42.2 µM
- GI50 [32]: 2.51 µM
- TGI [32]: 11.2 µM
- GI50 [33]: 3.39 µM
- TGI [33]: 14.7 µM
- GI50 [34]: 16.5 µM
- TGI [34]: > 100 µM
- GI50 [35]: 53.1 µM
- TGI [35]: > 100 µM
- GI50 [36]: 6.91 µM
- TGI [36]: > 100 µM
- GI50 [37]: 4.09 µM
- TGI [37]: > 100 µM
- GI50 [38]: 4.93 µM
- TGI [38]: > 100 µM
- GI50 [39]: 2.26 µM
- TGI [39]: 10.8 µM
- GI50 [40]: 6.81 µM
- TGI [40]: > 100 µM
- GI50 [41]: 19.7 µM
- TGI [41]: > 100 µM
- GI50 [42]: 7.04 µM
- TGI [42]: 42 µM
- GI50 [43]: 12.2 µM
- TGI [43]: 58.6 µM
- GI50 [44]: 12.3 µM
- TGI [44]: 52.4 µM
- GI50 [45]: 5.74 µM
- TGI [45]: 19.9 µM
- GI50 [46]: 27.2 µM
- TGI [46]: > 100 µM
- GI50 [47]: 29.9 µM
- TGI [47]: > 100 µM
- GI50 [48]: 24.9 µM
- TGI [48]: > 100 µM
- GI50 [49]: 2.88 µM
- TGI [49]: 65.6 µM
- GI50 [50]: 3.09 µM
- TGI [50]: > 100 µM
- GI50 [51]: 3.87 µM
- TGI [51]: 69.2 µM
- GI50 [52]: 5.23 µM
- TGI [52]: > 100 µM
- GI50 [53]: 47.2 µM
- TGI [53]: > 100 µM
- GI50 [54]: 4.16 µM
- TGI [54]: 41.3 µM
- GI50 [55]: 15.3 µM
- TGI [55]: > 100 µM
- GI50 [56]: 5.02 µM
- TGI [56]: 26 µM
- GI50 [57]: 7.23 µM
- TGI [57]: 59.9 µM
